For data set [1] the following is noted: 85 kPa, Liquid, Capillary tube (Ostwald / Ubbelohde) method.
Data set [2] can be described thus: mn = molality of the nth substance listed, in mol/kg. The note with it: 85 kPa, Liquid, m2 = 0; for viscosity: Capillary tube (Ostwald / Ubbelohde) method.

For orientation: viscosity means the resistance of a fluid to flow. One may read the mass density as the mass of a sample divided by its volume.

Structures are written as SMILES. Numbers after ± are expanded uncertainties.

On to `O` [water], for which the viscosity amounted to 1.259 ± 0.12 mPa·s in data set [1] (288.15 K), 0.995 ± 0.12 mPa·s in data set [1] (298.15 K), 0.819 ± 0.12 mPa·s in data set [1] (308.15 K) and 0.686 ± 0.12 mPa·s in data set [1] (318.15 K).
For `O` [water] + C[N+](C)(C)CCO.O=C([O-])[C@@H]1CCCN1, the viscosity in data set [2] (288.15 K) turned out to be 1.259 ± 0.12 mPa·s; in data set [2] (298.15 K), 0.995 ± 0.12 mPa·s; in data set [2] (308.15 K), 0.819 ± 0.12 mPa·s; in data set [2] (318.15 K), 0.686 ± 0.12 mPa·s.
On to `O` [water] + C[N+](C)(C)CCO.NCC(=O)[O-], for which the viscosity in data set [2] (288.15 K) is 1.259 ± 0.12 mPa·s; in data set [2] (298.15 K), 0.995 ± 0.12 mPa·s; in data set [2] (308.15 K), 0.819 ± 0.12 mPa·s; in data set [2] (318.15 K), 0.686 ± 0.12 mPa·s. In data set [2] (298.15 K, Vibrating tube method), the mass density is 997.38 ± 0.43 kg/m3.

Values taken from the NIST ThermoML archive (doi:10.1021/acs.jced.8b00879).
